Data: paper PMC11023033

Experiment: CuAAC: 1,7-diethynyl PDI 8 + bis-azide, [1+1] macrocyclisation; Cu(MeCN)4PF6 0.4 eq with TBTA 0.4 eq (THPTA for 2a), N2, rt
Conditions: the molecule shown is the open-chain precursor, CH2Cl2, 0.22 mM, 25.0 °C

## C#Cc1cc2c3c(ccc4c5c(-c6cn(CCCCCCCCOc7ccc8ccccc8c7-c7c(OCCCCCCCCN=[N+]=[N-])ccc8ccccc78)nn6)cc6c7c(ccc(c1c34)c75)C(=O)N(c1c(C(C)C)cccc1C(C)C)C6=O)C(=O)N(c1c(C(C)C)cccc1C(C)C)C2=O
34-membered ring, 96.0 h
  ring closure, isolated yield: 33%

## C#Cc1cc2c3c(ccc4c5c(-c6cn(CCCCCCOc7ccc8ccccc8c7-c7c(OCCCCCCN=[N+]=[N-])ccc8ccccc78)nn6)cc6c7c(ccc(c1c34)c75)C(=O)N(c1c(C(C)C)cccc1C(C)C)C6=O)C(=O)N(c1c(C(C)C)cccc1C(C)C)C2=O
30-membered ring, 96.0 h
  ring closure, isolated yield: 53%

## C#Cc1cc2c3c(ccc4c5c(-c6cn(CCCCOc7ccc(OCCCCN=[N+]=[N-])cc7)nn6)cc6c7c(ccc(c1c34)c75)C(=O)N(c1c(C(C)C)cccc1C(C)C)C6=O)C(=O)N(c1c(C(C)C)cccc1C(C)C)C2=O [1a (hydroquinone, n=4)]
26-membered ring, 96.0 h
  ring closure, isolated yield: 24%

## C#Cc1cc2c3c(ccc4c5c(-c6cn(CCCCCCOc7ccc(OCCCCCCN=[N+]=[N-])cc7)nn6)cc6c7c(ccc(c1c34)c75)C(=O)N(c1c(C(C)C)cccc1C(C)C)C6=O)C(=O)N(c1c(C(C)C)cccc1C(C)C)C2=O [1b (hydroquinone, n=6)]
30-membered ring, 96.0 h
  ring closure, isolated yield: 23%

## C#Cc1cc2c3c(ccc4c5c(-c6cn(CCCCOc7ccc8ccccc8c7-c7c(OCCCCN=[N+]=[N-])ccc8ccccc78)nn6)cc6c7c(ccc(c1c34)c75)C(=O)N(c1c(C(C)C)cccc1C(C)C)C6=O)C(=O)N(c1c(C(C)C)cccc1C(C)C)C2=O [2a (P-BINOL, n=4; PM 2% + PP 2%, dr 1:1)]
26-membered ring, 144.0 h
  ring closure, isolated yield: 4%
